The source of these data is patent US20230192686A1, “1H-PYRROLO[2,3-B]PYRIDINES AND PREPARATION AND USES THEREOF” (BioSplice Therapeutics, Inc., priority 2021, published 2023).

The target of assay [1] is recombinant DYRK1A kinase (Homo sapiens, UniProt Q13627). Kind of assay: DYRK1A kinase assay (Ser/Thr 18 peptide Z-lyte FRET). Type of assay: biochemical. The following applies: DYRK1A kinase activity; 15 μM ATP, 4 μM Ser/Thr peptide 18, one hour at room temperature. The method, boiled down: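 Recombinant DYRK1A at 0.25 μg/mL was incubated 1 h at room temperature with 15 μM ATP, 4 μM Ser/Thr 18 peptide and compound, in duplicate, 11-point series from 10 μM. Phosphorylation was read by Z-lyte FRET after 1 h protease development, as the coumarin/fluorescein emission ratio converted to % phosphorylation. IC50 by non-linear regression.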

The subject of assay [2] is Tau phosphorylation at Thr212 (pThr212). Kind of assay: Tau phosphorylation assay, phosphoTau (Thr212) AlphaLISA in HEK293T cells transfected with DYRK1A and MAPT. Type of assay: cell-based. The following applies: HEK-293T; HEK293T cells transfected with human DYRK1A and MAPT; compound treatment 18-24 hours; read-out: pTau (Thr212) EC50. How it is done:
Representative compounds were screened using the assay procedure for tau phosphorylation activity described below.
HEK293T cells (ATCC, CRL3216) cultured in DMEM (Thermo Fisher Scientific, 10566024) supplemented with 10% FBS (Corning, 35-011-CV) and Penicillin/Streptomycin (Thermo Fisher Scientific, 15140163) were seeded in a 75 cm^2 flask at 8.1×10^6 cells/flask. The HEK293T cells were then transiently transfected with 5 μg DYRK1A (NM_001396) human untagged clone (OriGene, SC314641) and 2.5 μg MAPT (441 a.a. Tau gene) (NM_005910) human untagged clone (OriGene, TP313312) using Lipofectamine 3000 (Thermo Fisher Scientific, L30000015) and incubated for 20-30 hours in a humidified incubator at 37° C. and 5% CO2. Post-incubation, HEK293T cells transfected with the DYRK1A and MAPT expression vectors were harvested and seeded in BioCoat poly-D lysine coated 96-well plates (Corning, 354461) at 3×10^4 cells/well.
The above synthesized compounds were screened using the cell assay procedure to assess decreased Tau phosphorylation at Thr212 (pThr212) described below.
Each compound was dissolved in DMSO (Sigma-Aldrich, D8418-100 mL) as a 10 mM stock. 10 mM stocks were serially diluted 1:3, 10-point dose-response curve and added to the cells with a final concentration ranging from 20 μM to 1.1 nM. Cell were treated with compounds in duplicate and incubated for 18-24 hours in a humidified incubator at 37° C. and 5% CO2.
Following the overnight compound treatment, cells were lysed with 1× Alpha Surefire Ultra Lysis Buffer (Perkin Elmer, ALSU-LB-100ML) complemented with 1× Halt Phosphatase Inhibitor Cocktail (Thermo Fisher Scientific, 78427) and 1× Halt Protease Inhibitor Cocktail (Thermo Fisher Scientific, 78438). Lysates were spun down at 12,000 g for 10 min to remove any cellular debris and 5 μL of lysates were dispensed into a 384-well Opti-Plate (Perkin Elmer, 6007290) for the measurement of Tau phosphorylation in the phosphoTau (Thr212) AlphaLISA assay. Donor antibody, biotinylated HT7Tau (Thermo Fisher Scientific, MN1000B), and acceptor antibody, pThr212Tau (Thermo Fisher Scientific, 44740G) were both added to the cell lysates at a final concentration of 3 nM and incubated for 1 hour at room temperature. Following incubation of the lysates with the donor and acceptor antibodies, anti-rabbit IgG(Fc specific) AlphaLISA acceptor beads (Perkin Elmer, AL104C) were added at a 10 ug/mL final concentration and incubated for 1 hour at room temperature protected from light. Lastly, AlphaScreen streptavidin donor beads (PerkinElmer, 6760002) were added at 40 ug/mL final concentration and incubated for 1 hour at room temperature protected from light. Plates were read at Ex=[…], and Em=615 nm on the EnVision Multilabel Plate Reader (Perkin Elmer) phospho-Tau (Thr212) AlphaLISA signal was used to plot, draw the curve fitting, and determine each compound's EC50 in Prism (GraphPad).
(In general: In Alpha technology, singlet oxygen from a donor bead excites a nearby acceptor bead.)

With `CN1CCC(NC(=O)c2cnn3ccc(-c4c[nH]c5nc(C6CC6)ccc45)cc23)CC1` [Compound 1514, 5-(6-Cyclopropyl-1H-pyrrolo[2,3-b]pyridin-3-yl)-N-(1-methylpiperidin-4-yl)pyrazolo[1,5-a]pyridine-3-carboxamide], the figures for the EC50 in assay [1] and in assay [2] were 5 nM and 82 nM, respectively.

Turning to `O=C1NCc2cc(-c3c[nH]c4nc(C5CC5)ccc34)ccc21` [Compound 1522, 5-(6-Cyclopropyl-1H-pyrrolo[2,3-b]pyridin-3-yl)isoindolin-1-one], the EC50 (in general, the midpoint of the concentration-response curve) in assay [1] was determined as 12 nM; in assay [2] it was 25 nM.

For the compound `O=C1NCCc2cc(-c3c[nH]c4nc(C5CC5)ccc34)ccc21` [Compound 1526, 6-(6-Cyclopropyl-1H-pyrrolo[2,3-b]pyridin-3-yl)-3,4-dihydroisoquinolin-1(2H)-one], the EC50 is 10 nM in assay [1] and 73 nM in assay [2].

Turning to `O=C1NCCOc2cc(-c3c[nH]c4nc(C5CC5)ccc34)ccc21` [Compound 1529, 8-(6-Cyclopropyl-1H-pyrrolo[2,3-b]pyridin-3-yl)-3,4-dihydrobenzo[f][1,4] oxazepin-5(2H)-one], the EC50 in assay [1] was 28 nM; in assay [2] it was 413 nM.

As for `c1cnc2ccc(-c3c[nH]c4nc(C5CC5)ccc34)cc2c1` [Compound 1530, 6-(6-Cyclopropyl-1H-pyrrolo[2,3-b]pyridin-3-yl)quinoline], the EC50 in assay [1] worked out at 24 nM; in assay [2] it was 393 nM.

Consider `CN1CCC(NC(=O)c2cnn3ccc(-c4c[nH]c5nc(C6CCCC6)ccc45)cc23)CC1` [Compound 1598, 5-(6-Cyclopentyl-1H-pyrrolo[2,3-b]pyridin-3-yl)-N-(1-methylpiperidin-4-yl)pyrazolo[1,5-a]pyridine-3-carboxamide], for which the results for the EC50 in assay [1] and in assay [2] were 4 nM and 132 nM, respectively.

For the compound `CN1CCC(NC(=O)c2cnn3ccc(-c4c[nH]c5nc(CC6CCC6)ccc45)cc23)CC1` [Compound 1640, 5-(6-(Cyclobutylmethyl)-1H-pyrrolo[2,3-b]pyridin-3-yl)-N-(1-methylpiperidin-4-yl)pyrazolo[1,5-a]pyridine-3-carboxamide], the EC50 in assay [1] was 6 nM; in assay [2], 199 nM.

Consider `FC(F)Oc1ccc2c(-c3ccc4nccn4c3)c[nH]c2n1` [Compound 1708, 6-(6-(Difluoromethoxy)-1H-pyrrolo[2,3-b]pyridin-3-yl)imidazo[1,2-a] pyridine], for which the results for the EC50 in assay [1] and in assay [2] were 18 nM and 540 nM, respectively.

Consider `CCOc1ccc2c(-c3ccc4nccn4c3)c[nH]c2n1` [Compound 1750, 6-(6-Ethoxy-1H-pyrrolo[2,3-b]pyridin-3-yl)imidazo[1,2-a]pyridine], for which the EC50 in assay [1] is 9 nM; in assay [2], 210 nM.

As to `CCOc1ccc2c(-c3ccc4ncccc4c3)c[nH]c2n1` [Compound 1782, 6-(6-Ethoxy-1H-pyrrolo[2,3-b]pyridin-3-yl)quinoline], the EC50 is 15 nM in assay [1] and 305 nM in assay [2].

Take `CN1CCC(NC(=O)c2cnn3ccc(-c4c[nH]c5nc(-c6ccccc6)ccc45)cc23)CC1` [Compound 2018, N-(1-Methylpiperidin-4-yl)-5-(6-phenyl-1H-pyrrolo[2,3-b]pyridin-3-yl)pyrazolo[1,5-a]pyridine-3-carboxamide]: the EC50 amounted to 7 nM in assay [1] and 8 nM in assay [2].

Consider `CN1CCN(C(=O)c2cnn3ccc(-c4c[nH]c5ncc(C#N)cc45)cc23)CC1` [Compound 2046, 3-(3-(4-Methylpiperazine-1-carbonyl)pyrazolo[1,5-a]pyridin-5-yl)-1H-pyrrolo[2,3-b]pyridine-5-carbonitrile], for which the EC50 in assay [1] amounted to 47 nM; in assay [2], 622 nM.

As to `O=C(Nc1ccncc1)c1ccc2c(-c3ccc4ncccc4c3)c[nH]c2n1` [Compound 2054, N-(Pyridin-4-yl)-3-(quinolin-6-yl)-1H-pyrrolo[2,3-b]pyridine-6-carboxamide], the values for the EC50 in assay [1] and in assay [2] were 51 nM and 6240 nM, respectively.
